{"source": "patent US4362743A", "about": "“Antibacterial monic acid esters” (Beecham Group Limited, priority 1980, dated 1982)", "key": {"E. Coli NCT 10418": {"test_system": "E. Coli NCT 10418", "assay": "Human bacteria MIC", "assay_type": "cell-based", "settings": "Escherichia coli, 18 h", "description": "(§1) The values were determined by serial dilutions in nutrient agar with 5% chocolated horse blood after incubations for 18 hours at 37° C."}, "Bacillus subtilis 6633": {"test_system": "Bacillus subtilis 6633", "assay": "Human bacteria MIC", "assay_type": "cell-based", "settings": "Bacillus subtilis, 6633, 18 h", "description": "as §1"}, "Strep. pyogenes R80/421": {"test_system": "Strep. pyogenes R80/421", "assay": "Human bacteria MIC", "assay_type": "cell-based", "settings": "Streptococcus pyogenes, R80/421, 18 h", "description": "as §1"}, "Strep. Group C 64/848": {"test_system": "Strep. Group C 64/848", "assay": "Human bacteria MIC", "assay_type": "cell-based", "settings": "18 h", "description": "as §1"}, "Sarcina lutea 8340": {"test_system": "Sarcina lutea 8340", "assay": "Human bacteria MIC", "assay_type": "cell-based", "settings": "Micrococcus luteus, 8340, 18 h", "description": "as §1"}, "P. mirabilis 889": {"test_system": "P. mirabilis 889", "assay": "Human bacteria MIC", "assay_type": "cell-based", "settings": "Proteus mirabilis, 889, 18 h", "description": "as §1"}, "Ps. aeruginosa 10662": {"test_system": "Ps. aeruginosa 10662", "assay": "Human bacteria MIC", "assay_type": "cell-based", "settings": "Pseudomonas aeruginosa, 10662, 18 h", "description": "as §1"}, "K. aerogenes A": {"test_system": "K. aerogenes A", "assay": "Human bacteria MIC", "assay_type": "cell-based", "settings": "Klebsiella aerogenes, 18 h", "description": "as §1"}, "Staph. aureus Russell": {"test_system": "Staph. aureus Russell", "assay": "Human bacteria MIC", "assay_type": "cell-based", "settings": "Staphylococcus aureus, 18 h", "description": "as §1"}, "[1]": {"test_system": "Haemophilus influenzae Wy21", "assay": "Human bacteria MIC", "assay_type": "cell-based", "settings": "Haemophilus influenzae, WY21, 18 h", "description": "as §1"}, "E. coli ESS": {"test_system": "E. coli ESS", "assay": "Human bacteria MIC", "assay_type": "cell-based", "settings": "Escherichia coli, 18 h", "description": "as §1"}, "Strep. pneumoniae CN33": {"test_system": "Strep. pneumoniae CN33", "assay": "Human bacteria MIC", "assay_type": "cell-based", "settings": "Streptococcus pneumoniae, CN33, 18 h", "description": "as §1"}, "Staph. aureus W2827": {"test_system": "Staph. aureus W2827", "assay": "Human bacteria MIC", "assay_type": "cell-based", "settings": "Staphylococcus aureus; Staph. aureus W2827; nutrient agar, 5% chocolated horse blood, 18 hours 37° C.; read-out: M.I.C.", "description": "as §1"}, "M. hyorhinis ATCC 23234": {"test_system": "M. hyorhinis ATCC 23234", "assay": "Anti-mycoplasmal activity in vitro MIC", "assay_type": "cell-based", "settings": "Mesomycoplasma hyorhinis, ATCC23234, 144 h"}, "M. suipneumoniae MS16": {"test_system": "M. suipneumoniae MS16", "assay": "Anti-mycoplasmal activity in vitro MIC", "assay_type": "cell-based", "settings": "Mesomycoplasma hyopneumoniae, MS16, 144 h"}, "[2]": {"assay": "Serum binding by ultrafiltration", "assay_type": "in vitro ADME", "settings": "pig, porcine serum, 8 mcg/ml, read-out: % bound to pig serum (converted)", "description": "Serum binding was assessed by ultrafiltration of porcine serum containing compounds at 8 mcg/ml, and through an Amicon CF50A ultrafiltration cone. Separation of ultrafiltrate was achieved by centrifugation. Unbound concentrations of compound were measured in the ultrafiltrate by microbiological assay (B. subtilis ATCC 6633) against standards prepared in saline."}, "[3]": {"test_system": "M. suipneumoniae ATCC 25095", "assay": "Anti-mycoplasmal activity in vitro MIC", "assay_type": "cell-based", "settings": "Mesomycoplasma hyopneumoniae, ATCC25095, 144 h; M. suipneumoniae ATCC 25095; Friis broth, 0.9% agarose, 6 days 37° C.; read-out: M.I.C."}, "M. suipneumoniae TAM 6N": {"test_system": "M. suipneumoniae TAM 6N", "assay": "Anti-mycoplasmal activity in vitro MIC", "assay_type": "cell-based", "settings": "Mesomycoplasma hyopneumoniae, TAM6N, 144 h"}, "M. suipneumoniae NB12": {"test_system": "M. suipneumoniae NB12", "assay": "Anti-mycoplasmal activity in vitro MIC", "assay_type": "cell-based", "settings": "Mesomycoplasma hyopneumoniae, 144 h; M. suipneumoniae NB12; Friis broth, 0.9% agarose, 6 days 37° C.; read-out: M.I.C."}, "[4]": {"test_system": "M. suipneumoniae PW/C/210", "assay": "Anti-mycoplasmal activity in vitro MIC", "assay_type": "cell-based", "settings": "Mesomycoplasma hyopneumoniae, 144 h; M. suipneumoniae PW/C/210; Friis broth, 0.9% agarose, 6 days 37° C.; read-out: M.I.C."}, "M. pneumoniae ATCC 15492": {"test_system": "M. pneumoniae ATCC 15492", "assay": "Anti-mycoplasmal activity in vitro MIC", "assay_type": "cell-based", "settings": "Mycoplasmoides pneumoniae, ATCC15492, 144 h"}, "M. hyorhinis ATCC 25021": {"test_system": "M. hyorhinis ATCC 25021", "assay": "Anti-mycoplasmal activity in vitro MIC", "assay_type": "cell-based", "settings": "Mesomycoplasma hyorhinis, ATCC25021, 144 h"}, "M. suipneumoniae LABER": {"test_system": "M. suipneumoniae LABER", "assay": "Anti-mycoplasmal activity in vitro MIC", "assay_type": "cell-based", "settings": "Mesomycoplasma hyopneumoniae, 144 h; M. suipneumoniae LABER; Friis broth, 0.9% agarose, 6 days 37° C.; read-out: M.I.C."}, "M. dispar NCTC 10125": {"test_system": "M. dispar NCTC 10125", "assay": "Anti-mycoplasmal activity in vitro MIC", "assay_type": "cell-based", "settings": "144 h"}, "[5]": {"test_system": "M. suipneumoniae NCTC 10110", "assay": "Anti-mycoplasmal activity in vitro MIC", "assay_type": "cell-based", "settings": "Mesomycoplasma hyopneumoniae, NCTC10110, 144 h; M. suipneumoniae NCTC 10110; Friis broth, 0.9% agarose, 6 days 37° C.; read-out: M.I.C."}, "M. suipneumoniae UCD 1": {"test_system": "M. suipneumoniae UCD 1", "assay": "Anti-mycoplasmal activity in vitro MIC", "assay_type": "cell-based", "settings": "Mesomycoplasma hyopneumoniae, UCD1, 144 h"}, "[6]": {"test_system": "M. bovigenitalium ATCC 14173", "assay": "Anti-mycoplasmal activity in vitro MIC", "assay_type": "cell-based", "settings": "144 h"}}, "data": [{"compound": "C/C(=C\\C(=O)OCCCCCC=NN(C)C)C[C@@H]1OC[C@H](C[C@@H]2O[C@H]2[C@@H](C)[C@H](C)O)[C@@H](O)[C@H]1O", "note": "[Example 6, 6-Dimethylhydrazonohexyl monate A]", "values": [{"measurement": "MIC", "setting": "E. Coli NCT 10418", "value": "> 100", "unit": "µg/mL"}, {"measurement": "MIC", "setting": "Bacillus subtilis 6633", "value": 5, "unit": "µg/mL"}, {"measurement": "MIC", "setting": "Strep. pyogenes R80/421", "value": 1, "unit": "µg/mL"}, {"measurement": "MIC", "setting": "Strep. Group C 64/848", "value": 1, "unit": "µg/mL"}, {"measurement": "MIC", "setting": "Sarcina lutea 8340", "value": "> 100", "unit": "µg/mL"}, {"measurement": "MIC", "setting": "P. mirabilis 889", "value": "> 100", "unit": "µg/mL"}, {"measurement": "MIC", "setting": "Ps. aeruginosa 10662", "value": "> 100", "unit": "µg/mL"}, {"measurement": "MIC", "setting": "K. aerogenes A", "value": "> 100", "unit": "µg/mL"}, {"measurement": "MIC", "setting": "Staph. aureus Russell", "value": 0.25, "unit": "µg/mL"}, {"measurement": "MIC", "setting": "[1]", "value": 0.5, "unit": "µg/mL"}, {"measurement": "MIC", "setting": "E. coli ESS", "value": 5, "unit": "µg/mL"}, {"measurement": "MIC", "setting": "Strep. pneumoniae CN33", "value": 1, "unit": "µg/mL"}, {"measurement": "MIC", "setting": "Staph. aureus W2827", "value": 0.25, "unit": "µg/mL"}, {"measurement": "MIC", "setting": "M. hyorhinis ATCC 23234", "value": 0.25, "unit": "µg/mL"}, {"measurement": "MIC", "setting": "M. suipneumoniae MS16", "value": 0.25, "unit": "µg/mL"}, {"measurement": "fraction unbound", "setting": "[2]", "value": 0.239}, {"measurement": "MIC", "setting": "[3]", "value": 0.5, "unit": "µg/mL"}, {"measurement": "MIC", "setting": "M. suipneumoniae TAM 6N", "value": 1, "unit": "µg/mL"}, {"measurement": "MIC", "setting": "M. suipneumoniae NB12", "value": 0.5, "unit": "µg/mL"}, {"measurement": "MIC", "setting": "[4]", "value": 0.5, "unit": "µg/mL"}, {"measurement": "MIC", "setting": "M. pneumoniae ATCC 15492", "value": 2.5, "unit": "µg/mL"}, {"measurement": "MIC", "setting": "M. hyorhinis ATCC 25021", "value": 0.25, "unit": "µg/mL"}, {"measurement": "MIC", "setting": "M. suipneumoniae LABER", "value": 0.5, "unit": "µg/mL"}, {"measurement": "MIC", "setting": "M. dispar NCTC 10125", "value": 0.25, "unit": "µg/mL"}, {"measurement": "MIC", "setting": "[5]", "value": 0.5, "unit": "µg/mL"}, {"measurement": "MIC", "setting": "M. suipneumoniae UCD 1", "value": 1, "unit": "µg/mL"}, {"measurement": "MIC", "setting": "[6]", "value": 0.025, "unit": "µg/mL"}]}]}
